Measurements from US4678800A, “Gamma-r-glutamoyl derivatives” (Ciba-Geigy Corporation, priority 1984, dated 1987).

How the values were obtained:
[1] = tested on: spontaneous hypertensive rat; experiment: in vivo lowering effect on blood pressure and heart rate in hypertensive rats; conditions: dose of 10 mg/kg p.o. or lower
From the text: This is demonstrable by in vivo or in vitro animal tests, using advantageously mammals, e.g., rats, cats, dogs or isolated organs thereof, as test objects. The animals may either be normotensive or hypertensive e.g., genetically hypertensive rats, or renal hypertensive rats and dogs, and sodium-depleted dogs. Said compounds can be applied to them enterally or parenterally, advantageously orally or intravenously, for example within gelatin capsules or in the form of starch suspensions or aqueous solutions, respectively. The applied dosage may range between about 0.01 and 50 mg/kg/day, preferably between about 0.1 and 25 mg/kg/day, advantageously between about 0.1 and 10 mg/kg/day.
The in vivo lowering effect on the blood pressure is recorded either directly by means of a catheter, for example placed in the dog's femoral artery, or indirectly by sphygmomanometry at the rat's tail, and a transducer, expressing the blood pressure prior and after dosing in mm Hg. Thus, for example, the representative members of the compounds of this invention, illustrated by the examples herein, are effective in hypertensive rats and at p.o. doses as low or lower than 10 mg/kg/day.

[2] = tested on: angiotensin I converting enzyme; experiment: inhibition of the angiotensin I pressor response in anesthetized normotensive rats; assay type: in vivo, rat; conditions: intravenous dose as low as 0.1 mg/kg
Description: The enzyme renin, normally causes specific hydrolysis of the circulating protein renin-substrate. This hydrolysis generates angiotensin I, which is further hydrolyzed by the action of said converting enzyme to the potent vasoconstrictor angiotensin II. The inhibition of said enzyme prevents the generation of angiotensin II from I and, therefore, attenuates any pressure response following an angiotensin I challenge.
The corresponding in vivo test is performed with male, normotensive rats, which are anesthetized with 100-120 mg/kg i.p. of sodium ethyl-(1-methylpropyl)-malonylthiourea. A femoral artery and saphenous vein are cannulated for direct blood pressure measurement and i.v. administration of angiotensin I and compounds of this invention. After the basal blood pressure is stabilized, pressor responses to 3 challenges of 0.33 μg/kg of angiotension I i.v. , in 5 minute intervals, are obtained. Such pressure responses are again obtained 5, 10, 15, 30 and 60 minutes after either i.v. or p.o. administration (stomach tube) of the compounds to be tested, and compared with the initial responses. Any observed decrease of said pressor response is an indication of angiotensin I converting enzyme inhibition, ranging up to 80% or greater after 10 mg/kg i.v., or lower doses, which decrease may be sustained up to 60 minutes.

[3] = target: T1, angiotensin-converting enzyme isolated from lungs of adult male rabbits (Oryctolagus cuniculus, UniProt P12822); experiment: in vitro inhibition of the angiotensin-converting enzyme (hippuryl-histidyl-leucine substrate); assay type: biochemical; conditions: rabbit lung enzyme, 37° for 30 minutes
T1 construct: angiotensin-converting enzyme isolated from lungs of adult male rabbits; from tissue; host or cells: lungs of adult male rabbits
T1 sequence (P12822 34-1310): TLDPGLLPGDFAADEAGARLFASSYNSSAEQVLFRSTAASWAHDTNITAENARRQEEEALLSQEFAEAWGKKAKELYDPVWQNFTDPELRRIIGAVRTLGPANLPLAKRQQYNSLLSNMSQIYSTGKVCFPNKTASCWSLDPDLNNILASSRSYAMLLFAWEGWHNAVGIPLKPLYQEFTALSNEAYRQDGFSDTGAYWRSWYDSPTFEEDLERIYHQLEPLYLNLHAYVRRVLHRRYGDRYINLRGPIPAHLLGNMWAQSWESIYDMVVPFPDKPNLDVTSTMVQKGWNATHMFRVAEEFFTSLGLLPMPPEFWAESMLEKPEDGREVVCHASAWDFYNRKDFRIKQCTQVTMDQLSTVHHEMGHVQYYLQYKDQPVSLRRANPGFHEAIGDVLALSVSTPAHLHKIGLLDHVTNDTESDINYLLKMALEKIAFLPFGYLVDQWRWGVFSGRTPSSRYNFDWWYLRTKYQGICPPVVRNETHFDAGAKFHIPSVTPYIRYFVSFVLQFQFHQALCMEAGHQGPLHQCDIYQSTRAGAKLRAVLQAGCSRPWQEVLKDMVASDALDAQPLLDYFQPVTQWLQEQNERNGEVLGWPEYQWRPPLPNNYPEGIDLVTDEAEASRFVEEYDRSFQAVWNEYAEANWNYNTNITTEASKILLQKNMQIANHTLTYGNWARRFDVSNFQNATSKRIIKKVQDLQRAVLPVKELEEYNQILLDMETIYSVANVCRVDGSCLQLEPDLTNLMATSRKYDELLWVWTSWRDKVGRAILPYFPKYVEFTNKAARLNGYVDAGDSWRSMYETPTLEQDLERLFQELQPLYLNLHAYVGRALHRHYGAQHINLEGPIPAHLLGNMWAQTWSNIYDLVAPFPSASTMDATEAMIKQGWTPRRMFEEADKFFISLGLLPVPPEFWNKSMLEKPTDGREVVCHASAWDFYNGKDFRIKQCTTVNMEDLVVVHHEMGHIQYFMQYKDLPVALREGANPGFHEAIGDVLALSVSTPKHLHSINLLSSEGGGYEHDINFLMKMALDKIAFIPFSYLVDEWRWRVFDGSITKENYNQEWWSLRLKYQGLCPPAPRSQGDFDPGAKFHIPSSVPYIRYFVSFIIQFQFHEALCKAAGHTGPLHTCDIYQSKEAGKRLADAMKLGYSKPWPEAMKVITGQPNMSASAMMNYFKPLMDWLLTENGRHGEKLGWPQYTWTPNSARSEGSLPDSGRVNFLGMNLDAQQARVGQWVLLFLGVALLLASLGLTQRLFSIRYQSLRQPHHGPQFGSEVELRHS
Description: Biophys. Acta 293, 451 (1973). According to this method, said compounds are dissolved at about 1 mM concentrations in phosphate buffer, externally cooled with ice. To these solutions various μl of histidyl-leucine in phosphate buffer are added, followed by 100 μl of 5 mM hippuryl-histidyl-leucine in phosphate buffer and 50 μl of the angiotensin-converting enzyme isolated from lungs of adult male rabbits, which is freshly prepared in Tris buffer containing potassium and magnesium chloride, as well as sucrose. Said solutions are incubated at 37° for 30 minutes and combined with 0.75 m- of 0.6 N aqueous sodium hydroxide to stop further reaction. Then 100 μl of o-phthalaldehyde are added at room temperature, and 10 minutes later 100 μl of 6N hydrochloric acid are also added. These samples are read against water in a spectrophotometer set at 360 nm, and the optical densities thereof estimated. They are corrected for the standard curve via a conversion factor expressing nanomoles of histidyl-leucine formed during said 30 minute incubation period. The results are plotted against drug concentration to determine the IC50, i.e., the drug concentration which gives half the activity of the control sample containing no drug. Again, said representative members of the compounds of this invention are very effective in this in vitro test system.

| SMILES | decrease of heart rate [1] | lowering of blood pressure [1] | inhibition of the pressor response following angiotensin I challenge [2] | IC50 [3] [nM] |
| --- | --- | --- | --- | --- |
| O=C(N[C@H](CCC(=O)N1c2ccccc2C[C@H]1C(=O)O)C(=O)O)OCc1ccccc1 [Example 1, 1-(N-Benzyloxycarbonyl-γ-R-glutamyl)indoline-2-S-carboxylic acid] | decrease the heart rate | lower blood pressure | about 70% | ~7 |
| O=C(N[C@H](CCC(=O)N1c2ccccc2C[C@H]1C(=O)O)C(=O)O)c1cccnc1 [Example 5, 1-(N-Nicotinoyl-γ-R-glutamyl)-indoline-2S-carboxylic acid] | decrease the heart rate | lower blood pressure |  |  |
